These results are taken from patent publication US12187709B2 (Genentech, Inc., priority 2021, dated 2025).

The target of one assay is c-Cbl (residues 47-435) (Homo sapiens (Human), UniProt P22681). The experiment in a line: c-Cbl SPR assay. The format is binding. The settings on record: 20° C. On the procedure: Affinity of binding to Cbl-b and c-Cbl for compounds described herein was assessed by surface plasmon resonance (SPR) according to the following protocol.
A surface capture range of 1300-1500 RU of protein was used for both isoforms.
For SPR measurements, 6 concentrations with 2 fold serial dilution were measured with blanks flanking each series for double referencing. […] SPR sensorgrams were recorded in multi-cycle kinetics format, with a contact time of 60 seconds and a flow rate of 40 μl/min, the dissociation time was varied between 120-1200 seconds aiming for 4-5 half-lives of the measured interaction.
Kinetic and affinity parameters were extracted from the multicycle kinetics data fitting to a 1:1 binding model using the Biacore™ Incyte evaluation software (Cytiva).
Chaser assay utilize a single cycle kinetics SPR experiment with a contact time of 120 seconds, a flow rate of 50 μl/min and a dissociation time of 450 seconds. Single cycle kinetics titration utilized an initial blank injection and 5 concentrations with 2 fold serial dilution with a maximum concentration of 500 nM, blanked to a preceding 6 point blank single cycle kinetics injection for double referencing.
The kd is measured independently by determining the percentage unoccupied compound binding site over time by measuring the binding of a chaser compound measured by SPR.
Chaser binding was measured by a multicycle kinetics SPR experiment using a contact time of 20 seconds, a flow rate of 30 μl/min, and a dissociation time of 120 seconds. […] The % compound bound at a given time was determined by comparison to a single injection of chaser preceding the single cycle kinetics titration defined below. % Compound Bound=(1−(RUT/RUT0))*100
The % compound bound is plotted against time in seconds and fit to a single exponential, where the exponent represents the kd of the compound-protein complex. The single cycle kinetics experiment of the compound is then fit with a fixed kd determined using the chaser.

In another assay the target is Cbl-b (Homo sapiens (Human), UniProt Q13191). The experiment in a line: Cbl-b LCK Ub TR-FRET assay (Cbl-b Lck HTRF). The format is biochemical. The settings on record: for IC50: Cbl-b LCK Ub TR-FRET; for fold-selectivity (Cbl-b over C-cbl): ratio C-cbl Lck HTRF IC50 / Cbl-b Lck HTRF IC50. The essentials:
(§1)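 Detection reagents added, brief spin, 20 min RT. IC50 fit normalized to no-LCK (low) and DMSO (high) controls.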
(In general: TR-FRET usually uses a lanthanide donor and a delayed reading to cut background.)

Assay [1] addresses Human Cbl-b (residues 40-426) (Homo sapiens (Human), UniProt Q13191). The experiment in a line: Cbl-b SPR assay. The format is binding. The settings on record: for Fold of selectivity: C-cbl SPR Kd vs Cbl-b SPR Kd; for Kd: SPR, 20° C. The essentials: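 Protein captured at 1300-1500 RU; compounds run as 6-point 2-fold series in multi-cycle kinetics (60 s contact, 40 μl/min, 120-1200 s dissociation), fitted 1:1. For slow binders, kd came from chaser-compound occupancy over time, fixed in a single-cycle fit (5 concentrations, top 500 nM).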
A general note: In SPR one partner is held on a chip, and binding of the other changes the refractive index at the surface.

The target of a further assay is c-Cbl (Homo sapiens (Human), UniProt P22681). The experiment in a line: C-Cbl LCK Ub TR-FRET assay (C-cbl Lck HTRF). The class given is biochemical. The essentials:
as §1

Sequence of Cbl-b (Q13191 40-426): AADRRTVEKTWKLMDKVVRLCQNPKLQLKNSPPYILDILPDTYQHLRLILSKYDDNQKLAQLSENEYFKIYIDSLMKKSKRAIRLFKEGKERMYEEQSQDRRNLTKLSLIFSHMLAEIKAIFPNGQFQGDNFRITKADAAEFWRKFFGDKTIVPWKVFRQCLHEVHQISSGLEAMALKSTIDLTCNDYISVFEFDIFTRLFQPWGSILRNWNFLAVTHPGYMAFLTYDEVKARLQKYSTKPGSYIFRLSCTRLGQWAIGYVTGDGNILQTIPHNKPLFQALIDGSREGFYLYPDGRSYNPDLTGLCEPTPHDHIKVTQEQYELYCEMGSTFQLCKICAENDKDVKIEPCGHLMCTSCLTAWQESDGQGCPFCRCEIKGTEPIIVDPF
Sequence of Human Cbl-b (residues 40-426) (Q13191 40-426): as above
Sequence of c-Cbl (P22681 47-435): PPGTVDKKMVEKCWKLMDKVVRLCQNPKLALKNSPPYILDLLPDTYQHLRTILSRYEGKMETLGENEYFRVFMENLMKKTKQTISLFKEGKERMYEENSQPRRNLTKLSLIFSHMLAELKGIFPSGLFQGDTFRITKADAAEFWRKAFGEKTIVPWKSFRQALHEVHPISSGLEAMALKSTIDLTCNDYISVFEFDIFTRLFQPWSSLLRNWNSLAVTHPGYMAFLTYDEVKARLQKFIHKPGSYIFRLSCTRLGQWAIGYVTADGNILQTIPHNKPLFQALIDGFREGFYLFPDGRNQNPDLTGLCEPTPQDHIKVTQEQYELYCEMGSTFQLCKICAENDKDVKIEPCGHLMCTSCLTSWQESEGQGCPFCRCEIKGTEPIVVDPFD
Sequence of c-Cbl (residues 47-435) (P22681 47-435): as above

What is called Kd is the equilibrium constant for the complex coming apart. Low values mean a tighter complex, high ones a looser complex. As usually defined, the IC50 is the concentration needed to halve the response being measured. For `COC1CC([C@@H](c2cccc(N3Cc4c(cc(CNC5(C)CCC5)cc4C(F)(F)F)C3=O)c2)c2nncn2C)C1` (single isomer, unassigned) [Compound 134], the Kd was 13 nM on c-Cbl (residues 47-435) and 1.9 nM in assay [1]. Also, the figures for the IC50 against Cbl-b and against c-Cbl were 9.8 nM and 17 nM, respectively. Further, the “fold-selectivity (Cbl-b over C-cbl)” value at Cbl-b is recorded as 1.8x. Besides, in assay [1], the Fold of selectivity is on record as 6.6×.

In turn, `Cc1cnnn1[C@@H](c1cccc(N2Cc3c(cc(CNC4(C)CCC4)cc3C(F)(F)F)C2=O)c1)C1COC1` (single isomer, unassigned) [Compound 135] registered a Kd at c-Cbl (residues 47-435) of 63 nM. Further, at Cbl-b, the IC50 turned out to be 37 nM and the “fold-selectivity (Cbl-b over C-cbl)” value is 1.9x. Also, in assay [1], the Fold of selectivity amounted to 4.9× and the Kd was 13 nM. This compound had an IC50 on c-Cbl of 69 nM.

Regarding `Cn1cnnc1[C@@H](c1cccc(N2Cc3c(cc(CNC4(C)CCC4)cc3C(F)(F)F)C2=O)c1)[C@H]1C[C@H](C#N)C1` (single isomer, unassigned) [Compound 139], the Kd at c-Cbl (residues 47-435) was 1000 nM; in assay [1], 220 nM. Besides, the concentration for half-maximal inhibition (IC50) at Cbl-b stood at 350 nM; against c-Cbl, 1300 nM. For the same compound, the “fold-selectivity (Cbl-b over C-cbl)” value on Cbl-b is on record as 3.6x. This compound also gave a Fold of selectivity in assay [1] of 4.6×.

Compound `Cn1cnnc1[C@@H](c1cccc(N2Cc3c(cc(CNC4(C)CCC4)cc3C(F)(F)F)C2=O)c1)[C@H]1C[C@@H](C#N)C1` (single isomer, unassigned) [Compound 140] showed a Kd on c-Cbl (residues 47-435) of 850 nM. At Cbl-b, inhibition was half-maximal at 830 nM (IC50) and the “fold-selectivity (Cbl-b over C-cbl)” value was 1.9x. In assay [1], this compound displayed a Fold of selectivity of 0.88× and a Kd of 980 nM. The compound further returned an IC50 against c-Cbl of 1500 nM.

In turn, `Cn1cnnc1[C@H](c1cccc(N2Cc3c(cc(CNC4(C)CCC4)cc3C(F)(F)F)C2=O)c1)[C@H]1C[C@@H](C#N)C1` (single isomer, unassigned) [Compound 141] displayed a Kd at c-Cbl (residues 47-435) of 9.4 nM. On Cbl-b, the IC50 worked out at 7.6 nM and the “fold-selectivity (Cbl-b over C-cbl)” value is given as 1.6x. Also, in assay [1], the Fold of selectivity is 5.1× and the Kd was 1.9 nM. Also, on c-Cbl, the IC50 was determined as 12 nM.

For `Cn1cnnc1[C@H](c1cccc(N2Cc3c(cc(CNC4(C)CCC4)cc3C(F)(F)F)C2=O)c1)[C@H]1C[C@H](C#N)C1` (single isomer, unassigned) [Compound 142], the Kd at c-Cbl (residues 47-435) turned out to be 1300 nM; in assay [1] it was 370 nM. In addition, the IC50 came to 200 nM at Cbl-b and 350 nM at c-Cbl. Besides, at Cbl-b, the “fold-selectivity (Cbl-b over C-cbl)” value amounted to 1.8x. In assay [1], this compound showed a Fold of selectivity of 3.8×.

`Cn1cnnc1[C@@](O)(c1cccc(N2Cc3c(cc(CNC4(C)CCC4)cc3C(F)(F)F)C2=O)c1)C1COC1` (single isomer, unassigned) [Compound 143] had a Kd on c-Cbl (residues 47-435) of 220 nM. Moreover, on Cbl-b, the IC50 turned out to be 62 nM and the “fold-selectivity (Cbl-b over C-cbl)” value stood at 3.1x. Also, in assay [1], the Fold of selectivity came out at 4.3× and the Kd came to 58 nM. The compound also showed an IC50 against c-Cbl of 190 nM.

Compound `Cn1cnnc1[C@H](c1cccc(N2Cc3c(cc(CNC4(C)CCC4)cc3C(F)(F)F)C2=O)c1)C1(O)COC1` (single isomer, unassigned) [Compound 147] registered a Kd on c-Cbl (residues 47-435) of 42 nM. On Cbl-b, the IC50 was 13 nM and the “fold-selectivity (Cbl-b over C-cbl)” value came out at 2.2x. Further, in assay [1], the Fold of selectivity was found to be 9.6× and binding was characterised by a dissociation constant (Kd) of 3.6 nM. The IC50 against c-Cbl is 29 nM.

As to `Cn1cnnc1C1(c2cccc(N3Cc4c(cc([C@H](CO)NC5(C)CCC5)cc4C(F)(F)F)C3=O)c2)CCC1` (single isomer, unassigned) [Compound 148], the Kd at c-Cbl (residues 47-435) came out at 63 nM; in assay [1] it was 9.3 nM. Also, the results for the IC50 against Cbl-b and at c-Cbl were 9.9 nM and 44 nM, respectively. Moreover, the “fold-selectivity (Cbl-b over C-cbl)” value at Cbl-b is reported as 4.4x. This compound also yielded a Fold of selectivity in assay [1] of 6.7×.

Turning to `Cn1cnnc1C1(c2cccc(N3Cc4c(cc([C@@H](CO)NC5(C)CCC5)cc4C(F)(F)F)C3=O)c2)CCC1` (single isomer, unassigned) [Compound 149], the Kd at c-Cbl (residues 47-435) amounted to 1.4 nM. Moreover, at Cbl-b, the IC50 is 4.9 nM and the “fold-selectivity (Cbl-b over C-cbl)” value is 0.82x. In assay [1], this compound gave a Fold of selectivity of 4.7× and a Kd of 0.3 nM. For the same compound, half-maximal inhibition on c-Cbl (IC50) was put at 4.1 nM.

Consider `Cn1cnnc1C(F)(c1cccc(N2Cc3c(cc(CNC4(C)CCC4)cc3C(F)(F)F)C2=O)c1)C1COC1` (single isomer, unassigned) [Compound 150], for which, at c-Cbl (residues 47-435), the Kd was found to be 28 nM. At Cbl-b, the IC50 amounted to 9.1 nM and the “fold-selectivity (Cbl-b over C-cbl)” value stood at 1.4x. In addition, in assay [1], the Fold of selectivity stood at 8.5× and binding was characterised by a dissociation constant (Kd) of 2.9 nM. In addition, it took 13 nM to reach half-maximal inhibition at c-Cbl (IC50).

Compound `Cn1cnnc1[C@@H](c1cc(F)cc(N2Cc3c(cc(CNC4(C)CCC4)cc3C(F)(F)F)C2=O)c1)C1COC1` (single isomer, unassigned) [Compound 152] yielded a Kd at c-Cbl (residues 47-435) of 59 nM. Further, at Cbl-b, the IC50 came to 18 nM and the “fold-selectivity (Cbl-b over C-cbl)” value is on record as 2.9x. For the same compound, in assay [1], the Fold of selectivity was 6.5× and the Kd is 8.7 nM. At c-Cbl, this compound came in with an IC50 of 52 nM.

`Cn1cnnc1[C@]1(c2cccc(N3Cc4c(cc(CNC5(C)CCC5)cc4C(F)(F)F)C3=O)c2)C[C@@H]([S@+](C)[O-])C1` (single isomer, unassigned) [Compound 160]: the Kd at c-Cbl (residues 47-435) was found to be 1000 nM; in assay [1], 1300 nM. In addition, the IC50 against Cbl-b came to 1300 nM; against c-Cbl it was 5300 nM. Besides, the “fold-selectivity (Cbl-b over C-cbl)” value at Cbl-b worked out at 3.9x. The compound also came in with a Fold of selectivity in assay [1] of 0.76×.

`Cn1cnnc1[C@]1(c2cccc(N3Cc4c(cc(CNC5(C)CCC5)cc4C(F)(F)F)C3=O)c2)C[C@H]([S@@+](C)[O-])C1` (single isomer, unassigned) [Compound 161]: on c-Cbl (residues 47-435), the Kd was determined as 3000 nM. Further, on Cbl-b, it took 600 nM to reach half-maximal inhibition (IC50) and the “fold-selectivity (Cbl-b over C-cbl)” value was 7.2x. In assay [1], this compound yielded a Fold of selectivity of 6.6× and a Kd of 460 nM. Also, on c-Cbl, the IC50 was found to be 4300 nM.

`Cn1cnnc1[C@@H](c1cccc(N2Cc3c(cc(CNC4(C)CCC4)cc3C(F)(F)F)C2=O)c1)C1COC1` (single isomer, unassigned) [Compound 164]: at c-Cbl (residues 47-435), binding was characterised by a dissociation constant (Kd) of 14 nM. Moreover, on Cbl-b, the IC50 stood at 8.9 nM and the “fold-selectivity (Cbl-b over C-cbl)” value was determined as 2.0x. In assay [1], this compound registered a Fold of selectivity of 7.0× and a Kd of 1.9 nM. Moreover, the IC50 against c-Cbl is 18 nM.

`COC[C@@H]1CC1(c1cccc(N2Cc3c(cc(CNC4(C)CCC4)cc3C(F)(F)F)C2=O)c1)c1nncn1C` (single isomer, unassigned) [Compound 166] displayed a Kd on c-Cbl (residues 47-435) of 3800 nM. Also, at Cbl-b, half-maximal inhibition (IC50) was put at 1900 nM and the “fold-selectivity (Cbl-b over C-cbl)” value was found to be 3.8x. Besides, in assay [1], the Fold of selectivity was 5.3× and the affinity, expressed as Kd, was 710 nM. It took 7200 nM to reach half-maximal inhibition against c-Cbl (IC50).

At c-Cbl (residues 47-435), `COC[C@H]1CC1(c1cccc(N2Cc3c(cc(CNC4(C)CCC4)cc3C(F)(F)F)C2=O)c1)c1nncn1C` (single isomer, unassigned) [Compound 167] showed a Kd of 5200 nM. Further, at Cbl-b, the IC50 was determined as 1400 nM and the “fold-selectivity (Cbl-b over C-cbl)” value is 4.7x. Also, in assay [1], the Fold of selectivity was 5.8× and the Kd was 910 nM. At c-Cbl, this compound had an IC50 of 6400 nM.
